Data reported in the supplement of paper PMC10307832.

What was measured:
Assay in all cases: relative viability (nuclei count vs DMSO), 5 days (fraction); higher = more cells survive
Elesclomol + Vorinostat = compound: CN(NC(=O)CC(=O)NN(C)C(=S)c1ccccc1)C(=S)c1ccccc1 [Elesclomol] + O=C(CCCCCCC(=O)Nc1ccccc1)NO [Vorinostat] (partner 1 µM)
Outline: (§1)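 The day after seeding in 1536-well plates, lung cancer cell lines were treated by pin tool with a single drug, or with a fixed anchor-drug dose together with five library-drug doses (not always all listed) in √10 steps. After 5 days, a combined fix-and-stain solution (final 0.05% Triton X-100, 1% formaldehyde, 1 ug/ml Hoechst) was added. Nuclei counted on 4× images gave relative viability as treated counts over vehicle counts, reported as the median of duplicate plates.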

Elesclomol + Tozasertib = compound: CN(NC(=O)CC(=O)NN(C)C(=S)c1ccccc1)C(=S)c1ccccc1 [Elesclomol] + Cc1cc(Nc2cc(N3CCN(C)CC3)nc(Sc3ccc(NC(=O)C4CC4)cc3)n2)n[nH]1 [Tozasertib] (partner 0.1 µM)
Outline: as §1

Elesclomol + Bortezomib = compound: CN(NC(=O)CC(=O)NN(C)C(=S)c1ccccc1)C(=S)c1ccccc1 [Elesclomol] + CC(C)C[C@H](NC(=O)[C@H](Cc1ccccc1)NC(=O)c1cnccn1)B(O)O [Bortezomib] (partner 0.002 µM)
Outline: as §1

Elesclomol + Luminespib = compound: CN(NC(=O)CC(=O)NN(C)C(=S)c1ccccc1)C(=S)c1ccccc1 [Elesclomol] + CCNC(=O)c1noc(-c2cc(C(C)C)c(O)cc2O)c1-c1ccc(CN2CCOCC2)cc1 [Luminespib] (partner 0.01 µM)
Outline: as §1

Elesclomol + Foretinib = compound: CN(NC(=O)CC(=O)NN(C)C(=S)c1ccccc1)C(=S)c1ccccc1 [Elesclomol] + COc1cc2c(Oc3ccc(NC(=O)C4(C(=O)Nc5ccc(F)cc5)CC4)cc3F)ccnc2cc1OCCCN1CCOCC1 [Foretinib] (partner 0.25 µM)
Outline: as §1

Cell Line	relative viability (Elesclomol + Vorinostat; first compound 0.003162 µM)	relative viability (Elesclomol + Vorinostat; first compound 0.01 µM)	relative viability (Elesclomol + Vorinostat; first compound 0.03162 µM)	relative viability (Elesclomol + Vorinostat; first compound 0.1 µM)	relative viability (Elesclomol + Tozasertib; first compound 0.003162 µM)	relative viability (Elesclomol + Tozasertib; first compound 0.01 µM)	relative viability (Elesclomol + Tozasertib; first compound 0.03162 µM)	relative viability (Elesclomol + Tozasertib; first compound 0.1 µM)	relative viability (Elesclomol + Bortezomib; first compound 0.003162 µM)	relative viability (Elesclomol + Bortezomib; first compound 0.01 µM)	relative viability (Elesclomol + Bortezomib; first compound 0.03162 µM)	relative viability (Elesclomol + Bortezomib; first compound 0.1 µM)	relative viability (Elesclomol + Luminespib; first compound 0.003162 µM)	relative viability (Elesclomol + Luminespib; first compound 0.01 µM)	relative viability (Elesclomol + Luminespib; first compound 0.03162 µM)	relative viability (Elesclomol + Luminespib; first compound 0.1 µM)	relative viability (Elesclomol + Foretinib; first compound 0.003162 µM)	relative viability (Elesclomol + Foretinib; first compound 0.01 µM)	relative viability (Elesclomol + Foretinib; first compound 0.03162 µM)	relative viability (Elesclomol + Foretinib; first compound 0.1 µM)
NCI-H650	0.539	0.38	0.184	0.132	0.737	0.351	0.222	0.192	1.02	0.309	0.199	0.198	0.791	0.401	0.196	0.18	1.07	0.509	0.329	0.243
NCI-H661	0.768	0.565	0.304	0.26	0.356	0.3	0.245	0.213	0.635	0.288	0.209	0.182	0.845	0.326	0.282	0.214	0.885	0.54	0.275	0.293
NCI-H727	1.14	1.18	1.03	0.641	0.661	0.357	0.424	0.249	0.679	0.405	0.185	0.0498	0.388	0.478	0.22	0.123	0.745	0.611	0.526	0.317
NCI-H838	0.723	0.706	0.609	0.303	0.282	0.25	0.18	0.172	0.825	0.581	0.621	0.609	0.33	0.235	0.166	0.109	1.07	0.854	0.66	0.419
NCI-H1355	0.617	0.524	0.418	0.213	0.505	0.538	0.332	0.173	1.15	1.08	0.828	0.24	0.713	0.623	0.413	0.171	0.951	0.894	0.514	0.207
NCI-H1437	0.74	0.411	0.322	0.334	0.348	0.344	0.252	0.23	0.388	0.32	0.268	0.264	0.967	0.689	0.445	0.436	1.11	0.79	0.609	0.464
NCI-H1650	0.3	0.22	0.146	0.11	0.227	0.168	0.139	0.136	0.229	0.206	0.165	0.16	0.156	0.206	0.201	0.148	0.525	0.306	0.132	0.136
